These are literature values, as cited in patent publication EP1432446B1, “METHODS FOR THE IDENTIFICATION OF POLYPEPTIDE ANTIGENS ASSOCIATED WITH DISORDERS INVOLVING ABERRANT CELL PROLIFERATION” (Genentech, Inc., priority 2001, dated 2003).

On to `COc1cc2cc(c1Cl)N(C)C(=O)C[C@H](OC(=O)[C@H](C)N(C)C(C)=O)[C@]1(C)O[C@H]1[C@H](C)[C@@H]1C[C@@](O)(NC(=O)O1)[C@H](OC)/C=C/C=C(\C)C2` [maytansine, Maytansine], for which the “adverse effects in clinical trials” value (clinical trials discontinued) was “serious adverse effects on the central nervous system and gastrointestinal system”. Moreover, the associated toxicity result (in vivo) is “peripheral neuropathy”.
